In article PMC10767194 (The Journal of Biological Chemistry, 2023):
Values joined by “and” are separate entries in the source; they are usually repeats but may differ in a detail not shown here. Equal values may be shown once. “Also recorded” adds a separate entry of the source. One block for each molecule: values may come before it.

Legend:
Cdk12/CycK [1] = target: T1, Cdk12/CycK (Homo sapiens, UniProt Q9NYV4); assay: SPR single-cycle kinetics, active Cdk12*/CycK; conditions: T-loop phosphorylated active kinase (CAK1 coexpressed), 1:1 binding model
T1 construct: GST (TEV site) (N, cleaved yes); made in house; host or cells: Sf9 insect cells, co-expressed with S. cerevisiae CAK1
T1 sequence (Q9NYV4 714-1063, one chain of several): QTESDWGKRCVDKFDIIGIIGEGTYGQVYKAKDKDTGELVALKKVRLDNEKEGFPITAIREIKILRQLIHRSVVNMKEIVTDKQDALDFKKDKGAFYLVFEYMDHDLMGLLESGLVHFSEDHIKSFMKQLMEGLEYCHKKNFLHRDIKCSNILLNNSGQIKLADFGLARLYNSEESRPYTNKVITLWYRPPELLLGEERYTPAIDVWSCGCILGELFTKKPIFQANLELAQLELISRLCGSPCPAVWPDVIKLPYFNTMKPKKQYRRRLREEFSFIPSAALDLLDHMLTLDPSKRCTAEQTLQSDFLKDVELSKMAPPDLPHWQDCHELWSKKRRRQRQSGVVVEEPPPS

Cdk12/CycK [2] = target: T1, Cdk12/CycK; assay: radioactive in vitro kinase assay, Cdk12/CycK; format: biochemical; conditions: 20 min; for inhibitory effect on Cdk12/CycK activity, in words: 0, 0.1, 1, 10, 100 μM compound, 0.2 μM Cdk12, 0.2 mM ATP, His-c-Myc; for IC50: 0.2 μM kinase, 0.2 mM ATP, 50 μM His-c-Myc, sigmoidal fit
Protocol: To a concentration of 0.2 μM kinase and 0.2 mM ATP, a compound concentration ranging from 0.1 nM to 1 mM was applied. Kinase reactions were started by the addition of 100 μM CTD peptide containing three hepta-repeats continuously prephosphorylated at position S7 (pS7-CTD[3]) and terminated after 60 min incubation time. In vitro IC50-values were determined by applying a sigmoidal fit to dose-response measurements (Fig. 1A).
Cdk12 kinase (0.2 μM) in the presence of 0.2 mM ATP were supplemented with respective compounds at concentrations of 0, 0.1, 1, 10, and 100 μM for 5 min. Upon addition of 50 μM His-c-Myc substrate the kinase assay reaction was conducted for 20 min.
Radioactive kinase activity assays were performed in a total volume of 15 μl per sample in kinase assay buffer (50 mM Hepes/pH 7.6, 34 mM KCl, 7 mM MgCl2, 5 mM β-glycerol phosphate, and 2.5 mM dithioerythritol). Preincubation of 0.2 μM or 0.02 μM recombinant protein kinase with indicated concentrations of respective inhibitor and 0.2 to 2 mM ATP containing 0.45 mCi [^32P]-γ-ATP/ml (PerkinElmer) was carried out for 5 min. Kinase reactions were started by addition of substrate protein (10 μM GST-Rb1 for Cdk4/CycD3, 10 μM GST-CTD[52] for Cdk7/CycH/MAT1, 50 μM His-c-Myc for all others) and incubated for 20 min at 30 °C in a shaking incubator at 300 rpm. For pS7-CTD[3] peptide, the substrate concentration was increased to 100 μM and assays were performed for 60 min. Reactions were terminated by the addition of EDTA to a final concentration of 50 mM. Reaction samples were separately spotted onto Amersham Protran nitrocellulose membranes (GE HealthCare) and subsequently washed three times for 5 min in PBS. Samples were transferred to 4 ml liquid scintillation vials and 2 ml liquid scintillator (Ultima Gold) were added. Radioactive counts were determined in a Beckman Liquid Scintillation Counter (Beckman Coulter) for 1 min. […] For analysis of dose response measurements and IC50 value determination, data of inhibitor-supplemented samples were normalized to DMSO solvent controls and their activity plotted against the inhibitor concentration. IC50 values were extracted from triplicate measurements by sigmoidal curve fitting using DataGraph (v. 5.0; https://www.visualdatatools.com/DataGraph/) or were determined by applying the Morrison quadratic equation for tight binding inhibitors using GraphPad Prism 10 (https://www.graphpad.com/) ([40]).

Cdk9/CycT1 = target: T2, Cdk9/CycT1 (Homo sapiens, UniProt P50750); assay: SPR single-cycle kinetics, Cdk9/CycT1; conditions: 1:1 binding model
T2 construct: Full-length, human, WT Cdk9 (residues 1–372, UniProt P50750); made in house; host or cells: Cdk9: Sf9 insect cells; CycT1: E. coli
T2 sequence (P50750 whole entry, the tested form may be a part): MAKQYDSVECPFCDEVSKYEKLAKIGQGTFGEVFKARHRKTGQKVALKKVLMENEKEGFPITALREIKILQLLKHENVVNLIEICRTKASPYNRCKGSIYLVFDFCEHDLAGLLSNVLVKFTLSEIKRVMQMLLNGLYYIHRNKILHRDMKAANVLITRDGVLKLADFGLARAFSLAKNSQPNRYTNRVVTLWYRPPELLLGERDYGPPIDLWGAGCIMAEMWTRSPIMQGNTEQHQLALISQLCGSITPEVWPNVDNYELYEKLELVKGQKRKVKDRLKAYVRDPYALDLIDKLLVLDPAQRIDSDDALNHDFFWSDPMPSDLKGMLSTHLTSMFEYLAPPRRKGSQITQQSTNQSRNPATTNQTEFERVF
T2 sequence (O60563 1-272 partner limits assumed): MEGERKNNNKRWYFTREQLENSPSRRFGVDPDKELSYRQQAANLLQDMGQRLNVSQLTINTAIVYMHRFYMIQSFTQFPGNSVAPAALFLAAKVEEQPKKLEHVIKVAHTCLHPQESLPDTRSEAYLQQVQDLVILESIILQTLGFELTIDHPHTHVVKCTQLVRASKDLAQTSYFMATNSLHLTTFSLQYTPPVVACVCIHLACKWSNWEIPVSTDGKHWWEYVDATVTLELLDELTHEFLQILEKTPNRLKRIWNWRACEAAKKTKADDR
Protocol: The protein kinases were immobilized on a CM5 chip using the amine-coupling method. […] The fully active and T-loop phosphorylated kinase preparations of Cdk12∗/CycK and Cdk13∗/CycK were obtained through coexpression with Cdk-activating kinase 1 (CAK1) from Saccharomyces cerevisiae. […] For comparison, we measured the affinity of NVP-2 for active kinases Cdk12∗/CycK and its proposed target Cdk9/CycT1 by SPR.
SPR experiments were conducted on a Biacore 8K (Cytiva) device. The system was equilibrated in running buffer (20 mM Tris pH 8, 150 mM NaCl, 1 mM tris(2-carboxyethyl)phosphine, 0.1 mM MgCl2, 0.05% Tween20, and 2% DMSO) at 25 °C. Flow cell 1 and 2 surfaces of a CM5 sensor chip (Cytiva) were conditioned with 50 mM NaOH at a flow rate of 30 μl/min for 15 s and subsequently activated with a 1:1 mix of 0.1 M N-hydroxysuccinimide (NHS) and 0.1 M 3-(N,N-dimethylamino) propyl-N-ethyl-carbodiimide (EDC) at a flow rate of 10 μl/min for 7 min. The flow system was washed with 1 M enthanolamine (pH 8). WT and mutant kinases Cdk12/CycK, Cdk13/CycK and Cdk9/CycT1 were diluted in Mes (pH 6.5) to a final concentration of 2 μM. Immobilization of kinases was performed in running buffer without DMSO using the amine coupling method on flow cell 2 surface for 160 s at a flow rate of 10 μl/min. Free binding sites were blocked with 1 M ethanolamine pH 8.0 (10 μl/min) for 7 min. […]

[3] = target: T3, Cdk12 kinase domain (residues 714–1063), T-loop phosphorylated, coexpressed with CAK1 (human, UniProt Q9NYV4 714-1063, phosphothreonine at 893 (pT893)); assay: crystal structure; Cdk12/CycK at 12 mg/ml with 5-fold excess of SR-4835; hanging drop vapor diffusion at 15 °C; 0.1 M Mops pH 6.5, 30% PEG mix, 0.1 M NDSB; 2.68 Å; conditions: both partners purified
T3 construct: kinase domain of human Cdk12, residues 714–1063, UniProt Q9NYV4; synthetic codon-optimised gene; The final model of 8P81 holds residues 716 to 1032 of Cdk12; also called cyclin-dependent kinase 12; not shown: GST, N-terminal, cleaved
T3 sequence (Q9NYV4 714-1063): as the sequence (Q9NYV4 714-1063, one chain of several) above

Molecule: CCN1CCN(Cc2ccc(Nc3ncc(F)c(-c4cc(F)c5nc(C)n(C(C)C)c5c4)n3)nc2)CC1 [abemaciclib]
- inhibitory effect on Cdk12/CycK activity, in words (Cdk12/CycK [2]): modest effects; also recorded: only weak efficacy
- IC50 (Cdk12/CycK [2]): 1300 nM

Molecule: CCc1cnn2c(NCc3ccc[n+]([O-])c3)cc(N3CCCC[C@H]3CCO)nc12 [dinaciclib]
- inhibitory effect on Cdk12/CycK activity, in words (Cdk12/CycK [2]): highest potency

Molecule: CN1CC[C@H](c2c(O)cc(O)c3c(=O)cc(-c4ccccc4Cl)oc23)[C@H](O)C1 [flavopiridol]
- inhibitory effect on Cdk12/CycK activity, in words (Cdk12/CycK [2]): modest effects

Molecule: CC(=O)c1c(C)c2cnc(Nc3ccc(N4CCNCC4)cn3)nc2n(C2CCCC2)c1=O [palbociclib]
- inhibitory effect on Cdk12/CycK activity, in words (Cdk12/CycK [2]): no inhibitory effect

Molecule: CN(C)C(=O)c1cc2cnc(Nc3ccc(N4CCNCC4)cn3)nc2n1C1CCCC1 [ribociclib]
- inhibitory effect on Cdk12/CycK activity, in words (Cdk12/CycK [2]): no inhibitory effect

Molecule: CN1CCN(c2ccc(Nc3ncc4cc5n(c4n3)C3(CCCCC3)CNC5=O)nc2)CC1 [trilaciclib]
- inhibitory effect on Cdk12/CycK activity, in words (Cdk12/CycK [2]): modest effects; also recorded: only weak efficacy
- IC50 (Cdk12/CycK [2]): 1340 nM

B1: cyclin K cyclin box domains (residues 1–267) (domain or fragment, human, UniProt O75909 1-267, looked up)
chain: MKENKENSSPSVTSANLDHTKPCWYWDKKDLAHTPSQLEGLDPATEARYRREGARFIFDVGTRLGLHYDTLATGIIYFHRFYMFHSFKQFPRYVTGACCLFLAGKVEETPKKCKDIIKTARSLLNDVQFGQFGDDPKEEVMVLERILLQTIKFDLQVEHPYQFLLKYAKQLKGDKNKIQKLVQMAWTFVNDSLCTTLSLQWEPEIIAVAVMYLAGRLCKFEIQEWTSKPMYRRWWEQFVQDVPVDVLEDICHQILDLYSQGKQQMPH
notes: cyclin box domains of human cyclin K, residues 1–267, UniProt O75909; synthetic codon-optimised gene; The final model of 8P81 holds residues 20 to 260 of CycK; also called CycK; not shown: GST, N-terminal, cleaved
- binding result [3]: binds

Second part, the molecule after the results:

- Kd (Cdk12/CycK [1]): 2.9 nM and 2.88 nM
- inhibitory effect on Cdk12/CycK activity, in words (Cdk12/CycK [2]): highest potency
- IC50 (Cdk12/CycK [2]): 40.9 nM
- Kd (Cdk9/CycT1): 0.1 nM
Molecule: COC[C@@H](C)NC1CCC(Nc2cc(-c3cccc(NCC4(C#N)CCOCC4)n3)c(Cl)cn2)CC1 (some centres unmarked) [NVP-2]

- inhibitory effect on Cdk12/CycK activity, in words (Cdk12/CycK [2]): modest effects
- IC50 (Cdk12/CycK [2]): 87.2 nM
Molecule: CN(C)C/C=C/C(=O)Nc1ccc(C(=O)Nc2cccc(Nc3ncc(Cl)c(-c4c[nH]c5ccccc45)n3)c2)cc1 [THZ1]

- inhibitory effect on Cdk12/CycK activity, in words (Cdk12/CycK [2]): modest effects
- IC50 (Cdk12/CycK [2]): 174 nM
Molecule: CN(C)C/C=C/C(=O)Nc1ccc(C(=O)N2CCC[C@@H](Nc3ncc(Cl)c(-c4c[nH]c5ccccc45)n3)C2)cc1 [THZ531]
